For this experiment, the system named is HEK 293T cells encoding an NF-κB-driven luciferase reporter gene. Description: NF-κB-driven luciferase reporter assay in HEK 293T cells. The experiment is classed as cell-based, human. To be noted: FIG. 12; HEK 293T; 10, 30 or 50 μg/mL, digitonin 20 min, luciferase after 6 hours. As for the experimental part:
FIGS. 10A-B. Effect of chemically synthesised analogues on human embryonic kidney cells (HEK 293T) encoding an NF-κB-driven luciferase reporter gene. NF-κB luciferase activity was measured in wild type (WT) or TIFA knockout (TIFA KO) cells treated with compounds in the presence of digitonin for 20 min, washed, and then cultured in normal medium without the synthetic compounds for 6 hrs after treatment, before luciferase activity was measured. (A) Cells were treated with 10 μg/mL of the indicated compound. Data are means±standard error mean of technical triplicates. (B) Cells were treated with two different molar concentrations of compound (30 μM or 150 μM). Two batches of DD-β-HBP and DD-β-HMP synthesized independently of one another were tested (batch #1 and batch #2) to assess consistency of the chemical synthesis. Data are means±standard error mean of technical triplicates and are representative of three independent experiments. JS-12: D-glycero-D-manno-heptose; JS-2: D-glycero-D-manno-heptose 7-phosphate; JS-7:D-glycero-β-D-manno-heptose-phosphate; JS-8: D-glycero-α-D-manno-heptose-phosphate; JS-9: β-D-mannose phosphate; JS-6:D-glycero-β-D-manno heptose 1,7-biphosphate; JS-5: D-glycero-α-D-manno heptose 1,7-biphosphate.
FIG. 12. Effects of compounds/products according to the invention on HEK 293T cells encoding an NF-κB-driven luciferase reporter gene. HEK 293T cells were transfected with a plasmid encoding an NF-κB-driven luciferase reporter. After 24 hours, cells were stimulated for 20 minutes in permeabilization buffer (5 μg/mL digitonin) in the presence of water or 10 μg/mL, 30 μg/mL, or 50 μg/mL of indicated synthetic compounds according to the invention. Treatment was removed; cells were washed and incubated for 6 hours incomplete medium. A luciferase assay was then performed. JS-12a control: D-glycero-D-manno heptose. The results are the means±standard error of the mean of three technical replicates. JS-10: 7-O-(Aminoethyl)-D-glycero-β-D-manno-heptopyranose phosphate; JS-11: 7-O-(Aminoethyl)-D-glycero-D-manno-heptopyranose; JS-12: D-glycero-D-manno-heptose; Js-13: pH-Rhodo-7-O-(aminoethyl)-D-glycero-β-D-manno-heptopyranose phosphate.
FIG. 14. Effects of compounds/products according to the invention on HEK 293T cells encoding an NF-κB-driven luciferase reporter gene. HEK 293T cells were transfected with a plasmid encoding an NF-κB-driven luciferase reporter. After 24 hours, cells were stimulated for 20 minutes in permeabilization buffer (5 μg/mL digitonin) in the presence of water, or either 30 μM or 150 μM of indicated synthetic compounds according to the invention. Treatment was removed; cells were washed and incubated for 6 hours in complete medium. A luciferase assay was then performed. […]

For `NCCOC[C@@H](O)C1O[C@@H](OP(=O)([O-])[O-])C(O)[C@@H](O)[C@@H]1O.[Na+].[Na+]` (stereo partly drawn) [JS-10a, 7-O-(Aminoethyl)-D-glycero-β-D-manno-heptopyranose phosphate], the “inflammatory response (NF-κB luciferase)” value is “modest inflammatory response”.

Source of the values: patent US11795190B2, “D-glycero-B-D-heptose 1-phosphate (HMP) conjugates and use for targeted immune modulation” (NATIONAL RESEARCH COUNCIL OF CANADA, priority 2017, dated 2023).
